Source: publication PMC11249646, “Small-Molecule Disruptors of the Interaction between Calcium- and Integrin-Binding Protein 1 and Integrin αIIbβ3 as Novel Antiplatelet Agents” (ACS Pharmacology & Translational Science, 2024)
Converted amounts (≈) assume the structure as drawn. Like-named read-outs stand apart in the source and are kept apart here.

Tests used:
[1] = In vitro ADME: solubility; assay type: physicochemical; conditions: read-out: Solubility
[2] = tested on: washed human platelets; test: Human platelet aggregation assay (thrombin-induced); assay type: cell-based; conditions: 10 μM compound
From the text: A classical challenge in target-based drug discovery is moving from biochemical to cellular assay and the essential step of determining if the compounds of interest can perform in a cellular context. After characterization of the compounds in a series of biochemical assay formats, our next step was to assess their activity in a cellular environment. Our previous studies have shown that the interaction of the cytoplasmic domain of integrin αIIbβ3, a key regulator of platelet aggregation, with CIB1, is involved in downstream signaling in platelet activation and aggregation. We sought to determine whether our candidate compounds were inhibiting this interaction by evaluating them for platelet function in a human platelet aggregation assay. We prepared platelet-rich plasma (PRP) and washed the platelets as previously described[44] and then performed a platelet aggregation assay using the washed platelet suspensions (2 × 10^8/platelets/mL) followed by the recording of aggregation traces (see Materials and Methods Section). To induce platelet aggregation, 0.03 U/mL of thrombin, a physiological agonist of platelet activation, was used.
Figure 6 Effect of compounds on human platelet activation. Representative platelet aggregation tracings of washed human platelet suspensions pretreated for 30 min at 37 °C with vehicle (DMSO) or compounds at indicated concentrations followed by activation with thrombin (0.03–0.1 U/mL). Panel (A): NCGC00071855. Panel (B–D): NCGC00351170. Panel (E): CD62P exposure was in the presence of NCGC00351170. Data represents mean ± SEM, n = 4 individual experiments; ns = non significant *P < 0.05, ***P < 0.001, ****P < 0.0001.
Whole blood was drawn by venipuncture from healthy adult volunteers (of both gender and race) with informed consent. Approval was obtained from the institutional review boards of Thomas Jefferson University, according to the Declaration of Helsinki. Blood was collected in acidified citrate dextrose as an anticoagulant. Platelet-rich plasma (PRP) and washed platelets were prepared, as previously described.[44] Platelet aggregation was performed using washed platelet suspensions containing 2 × 10^8 platelets/mL using a Chrono-Log Lumi-Aggregometer (Chrono-Log), as described previously.[11] Aggregation traces were recorded by using Aggrolink software (Chrono-Log). Thrombin-induced P-selectin (CD62P) exposure was performed using Accuri C6 flowcytometer (BD Bioscience) as described previously.[11]
Figure S9: Effect of compounds on human platelet activation. Representative platelet aggregation
tracings of washed human platelet suspensions treated with vehicle (DMSO) or indicated
compounds at 10 μM for 30 minutes at 37 °C followed by activation with thrombin (0.03U/mL).

[3] = target: T1, GST-CIB1 : F-scrambled peptide (Homo sapiens, UniProt Q99828); test: FP scrambled-peptide counter screen, 1536-well format; assay type: binding; conditions: scrambled-peptide counterscreen; for COUNTERSCREEN Confirm?: YES/NO call; for COUNTERSCREEN Curve Class: qHTS curve class; for IC50: read-out: COUNTERSCREEN IC50
T1 construct: made in house; host or cells: BL-21 plus RIL cells (E. coli)
T1 sequence (Q99828 1-191): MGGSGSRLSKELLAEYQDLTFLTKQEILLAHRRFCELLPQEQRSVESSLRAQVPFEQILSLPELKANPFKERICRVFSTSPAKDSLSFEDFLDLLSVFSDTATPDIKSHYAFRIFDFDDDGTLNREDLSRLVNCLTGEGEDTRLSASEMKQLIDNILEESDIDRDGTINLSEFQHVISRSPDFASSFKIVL

[4] = target: T2, GST-CIB1:F-αIIb interaction (Homo sapiens, UniProt Q99828); test: Gel-based (in-gel) binding assay; conditions: 1 μM GST-CIB1, 400 nM F-αIIb; 60 μM, 1:2, 4-points
T2 construct: made in house; host or cells: BL-21 plus RIL cells (E. coli)
T2 sequence (Q99828 1-191): T1 sequence (Q99828 1-191)

[5] = target: T3, CIB1 and αIIb interaction (CIB1-GST : F-αIIb peptide) (Homo sapiens, UniProt Q99828); test: FP assay, 1536-well qHTS format (primary and confirmatory screen); assay type: binding; conditions: for CONFIRMATORY SCREEN Confirm?: YES/NO call; for CONFIRMATORY SCREEN Curve Class: qHTS curve class; for CONFIRMATORY SCREEN Curve Class / Curve Class: negative sign = inhibitory curve; for CONFIRMATORY SCREEN Efficacy (%) / Efficacy (%): negative = inhibition
T3 construct: made in house; host or cells: BL-21 plus RIL cells (E. coli)
T3 sequence (Q99828 1-191): T1 sequence (Q99828 1-191)

[6] = target: T4, CIB1 and αIIb interaction (GST-CIB1 : F-αIIb peptide) (Homo sapiens, UniProt Q99828); test: FP assay, 384-well format (screen); assay type: binding; set-up: 384-well SCREEN Efficacy (%): concentration or dose not given beside the values; conditions: F-αIIb peptide; for 384-well SCREEN Confirm?: YES/NO; for IC50: read-out: 384-well SCREEN IC50
T4 construct: made in house; host or cells: BL-21 plus RIL cells (E. coli)
T4 sequence (Q99828 1-191): T1 sequence (Q99828 1-191)

[7] = target: T1, GST-CIB1 : F-scrambled peptide; test: FP scrambled-peptide counter screen, 384-well format; assay type: binding; conditions: F-scrambled peptide; for 384-well COUNTERSCREEN Confirm?: *: Curve in opposite direction; for IC50: read-out: 384-well COUNTERSCREEN IC50
[8] = In vitro ADME: PAMPA permeability
[9] = target: T5, CIB1 and αIIb peptide (Homo sapiens, UniProt Q99828); test: Intrinsic tryptophan fluorescence (ITF) assay
T5 sequence (Q99828 1-191): T1 sequence (Q99828 1-191)

[10] = target: T6, GST-CIB1 : F-αIIb peptide (Homo sapiens, UniProt Q99828); test: FP assay in the presence of glutathione (GSH), thiol reactivity; assay type: binding; conditions: for GSH/CIB1 IC50 ratio: ratio of GSH (+) IC50 to GSH (-) IC50; for GSH Assay Result: thiol reactivity call: No change / Active
T6 construct: made in house; host or cells: BL-21 plus RIL cells (E. coli)
T6 sequence (Q99828 1-191): T1 sequence (Q99828 1-191)

[11] = confirmatory screen, read-out: CONFIRMATORY SCREEN IC50
[12] = FP assay in the presence of glutathione (GSH +), read-out: GSH (+) Assay IC50
[13] = FP assay without glutathione (GSH -), read-out: GSH (-) Assay IC50
[14] = qHTS primary screen hits, Table S2

Row | SMILES | COUNTERSCREEN Efficacy (%) [3] | COUNTERSCREEN Confirm? [3] | COUNTERSCREEN Curve Class [3] | IC50 [3] | Active in Gel Assay? [4] | CONFIRMATORY SCREEN Confirm? ([5]; confirmatory screen) | CONFIRMATORY SCREEN Curve Class ([5]; confirmatory screen) | CONFIRMATORY SCREEN Efficacy (%) ([5]; confirmatory screen) | IC50 [5, 11] | 384-well SCREEN Efficacy (%) [6] | 384-well SCREEN Confirm? [6] | IC50 [6] | 384-well COUNTERSCREEN Efficacy (%) [7] | 384-well COUNTERSCREEN Confirm? [7] | IC50 [7] | IC50 [9] | IC50 [10, 12] | IC50 [10, 13] | GSH/CIB1 IC50 ratio [10] | GSH Assay Result [10] | further results
1 | O=C(c1cccs1)c1no[n+]([O-])c1C(=O)c1cccs1 [NCGC00071855-04] | -36% | YES | -1.4 | 25.1 µM | YES | YES | -1.4 | -40% | 5.6 µM | 76% | YES | 7.9 µM | 50% | YES | 31.6 µM | 53.1 µM | 3.1 µM | 6.3 µM | 0.5 | No change | solubility [1]: 9 µg/mL (≈ 29.4 µM); Platelet Aggregation Result [2]: Active; Papp [8]: 156 ×10⁻⁶ cm/s
2 | Oc1ccc2ccccc2c1SSc1c(O)ccc2ccccc12 [NCGC00186047-02, IPA-3, reference compound] | -34% | YES | -1.2 | 31.6 µM | YES | YES | -1.4 | -74% | 2.8 µM | 76% | YES | 1.3 µM | 23% | YES | > 120 µM | 16.6 µM | 0.326 µM | 0.232 µM | 1.4 | No change | Efficacy (%) [5, 14]: -21%; Curve Class [5, 14]: -1.4; IC50 ([5]; qHTS primary screen hits, Table S2, read-out: IC50): 10.3 µM; shift in potency in the presence of GSH ([10]; with vs without 10 μM reduced GSH): no shift
3 | COc1ccc(CNC(=O)c2nc(S(=O)(=O)Cc3ccccc3)ncc2Cl)cc1.O=C(O)C(F)(F)F [NCGC00117170-03] | -18% | YES | 4 | – | YES | YES | -1.4 | -29% | 12.6 µM | 56% | YES | 7.1 µM | 17% | YES | > 120 µM | – | 4.1 µM | 3.2 µM | 1.3 | No change | Efficacy (%) ([5]; qHTS FP screen hits, Table S2): -38%; Curve Class ([5]; qHTS FP screen hits, Table S2, one class per curve where COUNT > 1): -1.2; IC50 ([5]; qHTS FP screen hits, Table S2, read-out: IC50): 2 µM; ITF IC50 [9]: inactive
